# Reference: patent publication US20150087641A1, “HETEROCYCLIC CGRP RECEPTOR ANTAGONISTS” (Merck Sharp & Dohme Corp., priority 2012, published 2015)
# Molecular target: T1, recombinant human CL receptor/RAMP1 (Homo sapiens, UniProt O60894+Q16602)
# T1 construct: expressed in transfected cells
# Assay: Recombinant receptor functional assay (cAMP, HTRF)
# Type: cell-based
# Details: HEK 293 cells expressing human CL receptor/RAMP1; antagonism of 1.2 nM human α-CGRP-stimulated cAMP
# Description: RECOMBINANT RECEPTOR: Human CL receptor (Genbank accession number L76380) was subcloned into the expression vector pIREShyg2 (BD Biosciences Clontech) as a 5′NheI and 3′ PmeI fragment. Human RAMP1 (Genbank accession number AJ001014) was subcloned into the expression vector pIRESpuro2 (BD Biosciences Clontech) as a 5′NheI and 3′NotI fragment. HEK 293 cells (human embryonic kidney cells; ATCC #CRL-1573) were cultured in DMEM with 4.5 g/L glucose, 1 mM sodium pyruvate and 2 mM glutamine supplemented with 10% fetal bovine serum (FBS), 100 units/mL penicillin and 100 μg/mL streptomycin, and maintained at 37° C. and 95% humidity. Cells were subcultured by treatment with 0.25% trypsin with 0.1% EDTA in HBSS. Stable cell line generation was accomplished by co-transfecting 10 μg of DNA with 30 μg Lipofectamine 2000 (Invitrogen) in 75 cm^2 flasks. CL receptor and RAMP1 expression constructs were co-transfected in equal amounts. […]
# RECOMBINANT RECEPTOR FUNCTIONAL ASSAY: Cells were resuspended in DMEM/F12 (Hyclone) supplemented with 1 g/L BSA and 300 μM isobutyl-methylxanthine. […] Raw data were transformed into concentration of cAMP using a standard curve then dose response curves were plotted and inflection point (IP) values were determined.
# T1 sequence (Q16602 23-461): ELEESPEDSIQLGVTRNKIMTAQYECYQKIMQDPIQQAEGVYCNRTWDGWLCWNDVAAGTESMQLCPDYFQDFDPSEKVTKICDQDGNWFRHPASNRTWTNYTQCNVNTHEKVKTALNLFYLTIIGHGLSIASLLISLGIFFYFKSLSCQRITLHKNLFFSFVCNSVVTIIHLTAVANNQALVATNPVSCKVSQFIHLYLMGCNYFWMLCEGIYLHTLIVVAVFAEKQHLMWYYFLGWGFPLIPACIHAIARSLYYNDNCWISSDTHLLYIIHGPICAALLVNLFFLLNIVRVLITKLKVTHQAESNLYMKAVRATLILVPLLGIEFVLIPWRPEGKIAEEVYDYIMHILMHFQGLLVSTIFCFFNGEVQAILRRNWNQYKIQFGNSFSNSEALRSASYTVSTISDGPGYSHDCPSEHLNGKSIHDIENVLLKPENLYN
# T1 sequence (O60894 27-148): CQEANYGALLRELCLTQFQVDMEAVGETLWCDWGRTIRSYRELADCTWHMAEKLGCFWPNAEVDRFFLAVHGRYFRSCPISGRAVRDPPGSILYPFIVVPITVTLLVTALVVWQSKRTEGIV
smiles,measurement,value
"C[C@@H]1[C@H](c2ccccc2)C[C@H](NC(=O)c2ccc3c(c2)CC2(C3)OC(=O)Nc3ncccc32)C(=O)N1CC(F)(F)F (stereo partly drawn) [Example 1, N-((3S,5S,6R)-6-Methyl-2-oxo-5-phenyl-1-(2,2,2-trifluoroethyl)piperidin-3-yl)-2′-oxo-1,1′,2′,3-tetrahydrospiro[indene-2,4′-pyrido[2,3-d][1,3]oxazine]-5-carboxamide]",IC50,0.089 µM
